Test results as given in PubChem BioAssay AID1259407 (Chemical Carcinogenesis Research Information System (CCRIS), 2018).
The source made the active and inactive calls. How the calls were made is not given here.

Tested on: CCRIS mutagenicity, Ames/micronucleus/aberration tests
Assay: CCRIS mutagenicity studies
Details: Test System: AMES SALMONELLA TYPHIMURIUM
[1] = Strain/Indicator: TA98, Metabolic Activation: NONE, Method: STANDARD PLATE
[2] = Strain/Indicator: TA100, Metabolic Activation: NONE, Method: STANDARD PLATE

Row | Structure (SMILES) | mutagenic call (Strain/Indicator: TA98-1,8-DNP6, Metabolic Activation: NONE) | mutagenic call (Strain/Indicator: TA98-1,8-DNP6, Metabolic Activation: S-9) | mutagenic call (Strain/Indicator: TA98, Metabolic Activation: NONE) | mutagenic call (Strain/Indicator: TA98, Metabolic Activation: S-9) | mutagenic call (Strain/Indicator: TA98NR, Metabolic Activation: NONE) | mutagenic call (Strain/Indicator: TA98NR, Metabolic Activation: S-9) | mutagenic call (Strain/Indicator: TA100, Metabolic Activation: NONE) | mutagenic call (Strain/Indicator: TA100, Metabolic Activation: S-9) | mutagenic call (Strain/Indicator: TA100NR, Metabolic Activation: NONE) | mutagenic call (Strain/Indicator: TA100NR, Metabolic Activation: S-9) | mutagenic call (Strain/Indicator: TA98(1,8-DNP6), Metabolic Activation: NONE, Method: STANDARD PLATE) | mutagenic call (Strain/Indicator: TA98(NR), Metabolic Activation: NONE, Method: STANDARD PLATE) | mutagenic call [1] | mutagenic call [2] | mutagenic call (Strain/Indicator: YG1021, Metabolic Activation: NONE, Method: STANDARD PLATE) | mutagenic call (Strain/Indicator: YG1024, Metabolic Activation: NONE, Method: STANDARD PLATE) | mutagenic call (Strain/Indicator: YG1026, Metabolic Activation: NONE, Method: STANDARD PLATE) | mutagenic call (Strain/Indicator: YG1029, Metabolic Activation: NONE, Method: STANDARD PLATE) | mutagenic call (Strain/Indicator: TA98, Metabolic Activation: RAT, LIVER, S-9, AROCLOR, Method: STANDARD PLATE) | mutagenic call (Strain/Indicator: TA100, Metabolic Activation: RAT, LIVER, S-9, AROCLOR, Method: STANDARD PLATE)
1 | O=C1CCCc2cc3c(cc21)cc([N+](=O)[O-])c1ccccc13 | active; positive | inactive; negative | active; positive | active; positive | active; positive | active; positive | active; positive | active; positive | active; positive | active; positive | – | – | – | – | – | – | – | – | – | –
2 | O=[N+]([O-])c1cccc2c1ccc1cccc([N+](=O)[O-])c12 | – | – | – | – | – | – | – | – | – | – | active; positive | active; positive | active; positive | active; positive | active; positive | active; positive | active; positive | active; positive | – | –
3 | CCC(C)c1ccc(/C=C/c2ccc(N)cc2)cc1 (configuration not stated) | – | – | – | – | – | – | – | – | – | – | – | – | inactive; negative | inactive; negative | – | – | – | – | active; positive | active; positive
